Assay results from article PMC6148246, “HS-1371, a novel kinase inhibitor of RIP3-mediated necroptosis” (Experimental & Molecular Medicine, 2018).

Tests used:
[1] = system: L929; test: TNF plus zVAD-induced necroptosis in L929 cells; type: cell-based, mouse
Method: Cells were pretreated with DAB or HS-1371 for 2 h and then treated with TSZ (6 h for immunoblotting, 24 h for cell death assay). Cell lysates were analyzed by immunoblotting (left bottom panel), and cell viability was analyzed by MTT assay (right panel). The results are presented as means ± SEM. *P < 0.05, **P < 0.01, ***P < 0.001. c, d HS-1371 had the same effect on mouse cells. L929 (mouse sarcoma, c) and MEF (mouse embryonic fibroblast, d) cells were pretreated with inhibitors and then necroptosis was induced by TNF. Cell lysates were analyzed by immunoblotting (upper panel), and cell viability was analyzed by MTT assay (bottom panel). The results are presented as means ± SEM. *P < 0.05, **P < 0.01, ***P < 0.001

[2] = target: T1, RIP3 (Homo sapiens, UniProt Q9Y572); test: Radiometric kinase assay of RIP3 (Reaction Biology); type: biochemical; design: purchased Reaction Biology Corp (Malvern, PA, USA); conditions: 10 μM ATP, 20 μM MBP substrate; read-out: IC50 against RIP3
T1 sequence (Q9Y572 whole entry): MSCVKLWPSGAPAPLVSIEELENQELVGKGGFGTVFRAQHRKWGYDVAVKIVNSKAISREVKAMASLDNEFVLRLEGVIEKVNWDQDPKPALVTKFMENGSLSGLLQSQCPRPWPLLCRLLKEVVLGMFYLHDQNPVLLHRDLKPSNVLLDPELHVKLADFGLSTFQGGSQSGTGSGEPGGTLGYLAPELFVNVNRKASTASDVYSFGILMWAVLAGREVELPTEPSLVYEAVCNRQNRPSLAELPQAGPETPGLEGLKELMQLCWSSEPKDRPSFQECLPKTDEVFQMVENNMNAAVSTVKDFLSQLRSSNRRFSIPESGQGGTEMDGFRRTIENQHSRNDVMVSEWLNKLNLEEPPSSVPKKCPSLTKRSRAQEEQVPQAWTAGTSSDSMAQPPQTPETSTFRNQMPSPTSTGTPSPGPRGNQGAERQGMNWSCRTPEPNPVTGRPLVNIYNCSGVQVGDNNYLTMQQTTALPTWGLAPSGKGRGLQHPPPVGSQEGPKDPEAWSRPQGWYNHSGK
Method: The inhibitory activities of all compounds toward RIP3 were measured by Reaction Biology Corp (Malvern, PA, USA) by means of radiometric kinase assays ([…]). The enzymatic activity of RIP3 was monitored using 20 μM of myelin basic protein (MBP) dissolved in freshly prepared reaction buffer (20 mM HEPES (pH 7.5), 10 mM MgCl2, 1 mM EGTA, 0.02% BRIJ-35, 0.02 mg/mL BSA, 0.1 mM Na3VO4, 2 mM DTT, 1% DMSO). Each putative RIP3 inhibitor was dissolved in 100% DMSO at specific concentrations and serially diluted with epMotion 5070 in DMSO. Human RIP3 and 20 μM of peptide substrate (MBP) were added to the reaction buffer. After delivering the candidate inhibitor dissolved in DMSO to the kinase reaction mixture using Acoustic technology (Echo550; nanoliter range), the reaction mixture was incubated for 20 min at room temperature. To initiate the enzymatic reaction, ^33P-ATP with specific activity of 10 μCi/μL was added to the reaction mixture to reach a final ATP concentration of 10 μM. Radioactivity was then monitored using the filter binding method after incubation of the reaction mixture for 2 h at room temperature. At given concentrations of inhibitor, biochemical potency was measured by the percent remaining kinase activity with respect to the vehicle (dimethyl sulfoxide) reaction. Curve fits and IC50 values were then obtained using the PRISM program (GraphPad Software). […]

[3] = target: T1, RIP3; test: TNF (TSZ)-induced RIP3 and MLKL phosphorylation in HT-29 cells (immunoblot); type: cell-based; design: RIP3-expressing HT-29 cells; endogenous in cells; host or cells: HT-29
Method: Cells were rinsed in cold phosphate-buffered saline (PBS) and lysed in M2 buffer containing 20 mM Tris at pH 7, 0.5% NP-40, 250 mM NaCl, 3 mM EDTA, 3 mM EGTA, 2 mM DTT, 0.5 mM PMSF, 20 mM β-glycerol phosphate, 1 mM sodium vanadate, and 1 μg/mL leupeptin. The cell extracts were subjected to western blot analysis. For immunoprecipitation, lysates were mixed and precipitated with antibody and protein A-agarose beads overnight or for 4 h at 4 °C. Bound proteins were removed by boiling in SDS and resolved by SDS-PAGE, and immunoblotting was visualized by enhanced chemiluminescence (ECL, Amersham).
Fig. 2 Novel inhibitors can block RIP3 S227 phosphorylation. a Western blotting showing various kinase inhibitor effects on RIP3 S227 auto-phosphorylation. HT-29 cells were treated with four tested kinase inhibitors (1308, 1336, 1338, and 1371, 10 μM) for 9 h. As a control, KK5101 (Trk alpha inhibitor) and HS829 (IKK beta inhibitor) were also treated at a concentration of 10 μM for 9 h. Prototypical necroptosis stimuli (TNF + zVAD + either cycloheximide or SMAC mimetic; hereafter referred to as TCZ or TSZ) were applied for 6 h. […] HT-29 cells were treated with 4 tested kinase inhibitors for 24 h, and cell viability was analyzed by MTT assay or phase-contrast microscopy. […] HT-29 cells were pretreated with necrostatin-1 (Nec-1, 40 μM), dabrafenib (DAB, 10 μM) or necrosulfonamide (NSA, 1 μM) for 2 h and then treated with TSZ for 6 h. […] HT-29 cells were pretreated with four tested kinase inhibitors for 2 h and then treated with TSZ for 6 h. Cell lysates were analyzed by immunoblotting. f HT-29 cells were pretreated with Nec-1 (40 μM), DAB (5 μM) or HS-1371 (5 μM) for 2 h and then treated with TSZ for 4 h. Cell lysates were immunoprecipitated with anti-RIP3 antibody. Immunoprecipitates and total lysates were analyzed by Western blotting
TNFα Smac mimetic and the caspase inhibitor zVAD (hereafter referred to as TSZ) is a classical combination that is used to induce RIP3-mediated necroptotic cell death[10],[32]. We first verified that three established pharmacological inhibitors of necroptosis, necrostatin-1 (Nec-1), necrosulfonamide (NSA), and dabrafenib (DAB) could block TNF-induced necroptosis (Fig. 2d). Of these inhibitors, Nec-1 inhibits RIP1 kinase activity[33],[34], DAB inhibits RIP3 kinase activity, and NSA inhibits MLKL functions downstream of RIP3 phosphorylation. […] Next, we tested whether these four inhibitors would inhibit TNF-induced necroptosis signaling by blocking RIP3 kinase activity. […] The effect of HS-1371 on RIP3 kinase activity was compared with another RIP3 inhibitor, GSK’872[16].

Structure (SMILES): Cc1ccc(Oc2ccnc3cc(-c4cnn(C5CCNCC5)c4)ccc23)cc1 [HS-1371, 7-(1-(Piperidin-4-yl)-1H-pyrazol-4-yl)-4-(p-tolyloxy)quinoline]
- TNF plus zVAD-induced necroptosis [1]: prevented
- IC50 [2]: 20.8 nM
- RIP3 phosphorylation, pre-treatment and post-treatment ([3]; HT-29, 5 μM, pretreated 1 h or applied 1 or 2 h after induction): completely inhibited
- MLKL phosphorylation, post-treatment after TSZ ([3]; HT-29, post-treatment until approximately 5 h after TSZ): partially blocked
- RIP3 phosphorylation, pre-treatment and post-treatment, low concentrations ([3]; HT-29, pretreated 1 h or applied 1 or 2 h after induction, low concentrations): partial inhibitory effect
- effect on TNF-induced necroptosis signaling (phosphorylation of RIP3 and MLKL) ([3]; HT-29, pretreated 2 h, TSZ 6 h): complete inhibitory effect
